According to patent US10208056B2, “Condensed tricyclic compounds as protein kinase inhibitors” (FUNDACIÓN DEL SECTOR PÚBLICO ESTATAL CENTRO NACIONAL DE …, priority 2015, dated 2019):
Like-named read-outs stand apart in the source and are kept apart here.

Key:
[1] = molecular target: CDK8/Cyclin C (Homo sapiens (Human), UniProt P49336); experiment: CDK8/Cyclin C binding assay (LanthaScreen Eu-Kinase Binding Assay); conditions: for IC50: binding assay
Description: The enzyme has been purchase from Invitrogen (PV4402) as a dimer of full-length His-tagged recombinant human proteins.
(§1) Assays were performed in 384-well plates. The final read out was generated using an EnVision plate reader (Perkin-Elmer).

[2] = molecular target: Haspin kinase (Homo sapiens (Human), UniProt Q8TF76); experiment: Haspin kinase assay (ADP-Glo); type: biochemical; conditions: ATP 150 μM
Sequence of Haspin kinase (Q8TF76 484-798): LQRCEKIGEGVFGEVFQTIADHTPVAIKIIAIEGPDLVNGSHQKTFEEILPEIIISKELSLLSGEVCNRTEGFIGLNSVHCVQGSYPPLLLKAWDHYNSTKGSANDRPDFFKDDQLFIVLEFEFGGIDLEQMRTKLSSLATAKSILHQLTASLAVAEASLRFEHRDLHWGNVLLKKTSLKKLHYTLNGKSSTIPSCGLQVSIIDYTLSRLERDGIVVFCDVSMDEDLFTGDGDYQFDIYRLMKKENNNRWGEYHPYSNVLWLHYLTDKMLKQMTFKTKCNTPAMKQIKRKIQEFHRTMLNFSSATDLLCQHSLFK
From the text: The kinase assay relies on ADP-Glo^KM biochemical kinase assay (Promega). This is a luminescent kinase assay that measures ADP formed from a kinase reaction. Then ADP is converted into ATP, which is transformed into a light signal by Ultra-Glo™ Luciferase. The luminescent signal positively correlates with kinase activity. The assay measures the intrinsic ATPase activity (in the absence of peptidic substrate as phosphate acceptor).
The enzyme was purchase from Invitrogen (PV5708) as the kinase domain of GST tagged recombinant human proteins.
Assay conditions were as indicated by the kit manufacturers with the following adaptations: • Assay buffer: 15 mM HEPES pH 7.4, 20 mM NaCl, 1 mM EGTA, 0.02% Tween 20, 10 mM MgCl2, 0.1 mg/ml BGG • Assay volume: 20 μl • Incubation time and temperature: 60 min at 30° C. • Haspin concentration: 20 nM • ATP concentration: 150 μM • Tested compound: Serial 1:3 dilutions • Final DMSO concentration in the assay: 1%
Assays were performed in 384-well plates. The final read out was generated using an EnVision plate reader (Perkin-Elmer). Luminescent relative units are normalized against the control activity included for each compound (i.e., 100% Haspin activity, without compound) and the percentage of inhibition is calculated.

[3] = molecular target: CDK19/Cyclin C (Homo sapiens (Human), UniProt Q9BWU1); experiment: CDK19/Cyclin C binding assay (LanthaScreen Eu-Kinase Binding Assay); conditions: read-out: CDK19-CYCC IC50
Sequence of CDK19/Cyclin C (Q9BWU1 whole entry): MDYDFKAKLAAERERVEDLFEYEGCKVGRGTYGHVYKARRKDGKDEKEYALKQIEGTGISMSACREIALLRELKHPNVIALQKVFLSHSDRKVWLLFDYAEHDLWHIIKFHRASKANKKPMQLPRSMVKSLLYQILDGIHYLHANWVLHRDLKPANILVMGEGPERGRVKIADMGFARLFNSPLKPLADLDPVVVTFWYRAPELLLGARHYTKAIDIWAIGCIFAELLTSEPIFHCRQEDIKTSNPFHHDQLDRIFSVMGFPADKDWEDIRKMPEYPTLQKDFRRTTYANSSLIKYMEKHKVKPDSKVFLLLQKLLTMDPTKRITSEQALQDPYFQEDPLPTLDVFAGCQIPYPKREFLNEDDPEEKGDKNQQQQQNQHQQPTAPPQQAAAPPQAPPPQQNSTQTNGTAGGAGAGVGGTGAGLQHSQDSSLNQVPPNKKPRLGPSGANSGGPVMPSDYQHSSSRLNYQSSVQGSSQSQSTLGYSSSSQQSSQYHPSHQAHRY
Sequence of CDK19/Cyclin C (P24863 whole entry partner): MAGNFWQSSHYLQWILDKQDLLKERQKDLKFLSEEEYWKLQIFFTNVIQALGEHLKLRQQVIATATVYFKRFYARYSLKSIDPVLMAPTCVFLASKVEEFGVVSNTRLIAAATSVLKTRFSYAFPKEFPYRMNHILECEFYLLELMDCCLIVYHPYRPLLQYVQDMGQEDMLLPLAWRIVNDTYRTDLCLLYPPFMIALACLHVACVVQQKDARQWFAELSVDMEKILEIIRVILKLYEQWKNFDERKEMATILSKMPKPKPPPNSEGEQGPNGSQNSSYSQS
Description: The binding assay relies on the LanthaScreen™ Eu-Kinase Binding Assay (Invitrogen).
Assay conditions were as indicated by the kit manufacturers with the following adaptations: • Assay buffer: 50 mM HEPES, pH 7.5, 1 mM EGTA, 0.01% Brij-35, 10 mM MgCl2 • Assay volume: 20 μl • Incubation time and temperature: 60 min at 25° C. • Cdk19-Cyclin C concentration: 2 nM • Tracer concentration: 20 nM • (Eu)-labelled anti-GST antibody concentration: 2 nM • Tested compound: Serial 1:3 dilutions • Final DMSO concentration in the assay: 1%
as §1

[4] = system: MV4:11; experiment: In vitro cell proliferation assay (CellTiter-Glo), MV4:11; type: cell-based
Description: (§2) The in vitro potency of the compounds was measured by the cell proliferation assay CellTiter-Glo® Luminescent Cell Viability Assay, commercially available from Promega Corp., Madison, Wis. This homogeneous assay method is based on the recombinant expression of Coleoptera luciferase (U.S. Pat. No. 5,583,024; U.S. Pat. No. 5,674,713; U.S. Pat. No. 5,700,670) and determines the number of viable cells in culture based on quantitation of the ATP present, an indicator of metabolically active cells (Crouch et al (1993) J. Immunol. Meth. 160:81-88; U.S. Pat. No. 6,602,677). The CellTiterGlo® Assay was conducted […] it amenable to automated high throughput screening (HTS) (Cree et al (1995) AntiCancer Drugs 6:398-404).
(§3) The homogeneous assay procedure involves adding the single reagent (CellTiter-Glo® Reagent) directly to cells cultured in serum-supplemented medium. Cell washing, removal of medium and multiple pipetting steps are not required. The system detects as few as 15 cells/well in a 96-well format in 10 minutes after adding reagent and mixing.
(§4) The homogeneous “add-mix-measure” format results in cell lysis and generation of a luminescent signal proportional to the amount of ATP present. The amount of ATP is directly proportional to the number of cells present in culture. The CellTiter-Glo® Assay generates a “glow-type” luminescent signal, produced by the luciferase reaction, which has a half-life generally greater than five hours, depending on cell type and medium used. Viable cells are reflected in relative luminescence units (RLU). The substrate, Beetle Luciferin, is oxidatively decarboxylated by recombinant firefly luciferase with concomitant conversion of ATP to AMP and generation of photons. The extended half-life eliminates the need to use reagent injectors and provides flexibility for continuous or batch mode processing of multiple plates. This cell proliferation assay can be used with various multiwell formats, e.g. 96 or 384 well format. Data can be recorded by luminometer or CCD camera imaging device. The luminescence output is presented as relative light units (RLU), measured over time.

[5] = system: MDA-MB-231; experiment: In vitro cell proliferation assay (CellTiter-Glo), MDA-MB-231; type: cell-based
Description: as §2, §3, §4

[6] = system: SW620; experiment: In vitro cell proliferation assay (CellTiter-Glo), SW620; type: cell-based, human
Description: as §2, §3, §4

[7] = system: Molm13; experiment: In vitro cell proliferation assay (CellTiter-Glo), Molm13; type: cell-based
Description: as §2, §3, §4

[8] = system: SW620; experiment: Combination assay, SW620; type: cell-based, human; conditions: SW620, chemotherapeutic alone, read-out: Chemo GI50
Description: The combination index (CI) of combinations of certain example compounds and various chemotherapeutic agents in the CellTitetI-Glo® in vitro cell proliferation assays may be tested. A combination index score is calculated by the Chou and Talalay method (CalcuSyn software, Biosoft). The strength of synergy is scored using the ranking system Chou and Talalay: CI less than 0.8 indicates synergy, CI between 0.8 and 1.2 indicates additivity and CI greater than 1.2 indicates antagonism.
The EC50 values of representative combinations are also calculated. The individually measured EC50 values of the chemotherapeutic agent and the example compounds are compared to the EC50 value of the combination. The cell lines are characterised by tumor type. Combination assays are performed as described in: “Pim 1 kinase inhibitor ETP-45299 suppresses cellular proliferation and synergizes with PI3K inhibition”. Blanco-Aparicio, Carmen; Collazo, Ana Maria Garcia; Oyarzabal, Julen; Leal, Juan F.; Albaran, Maria Isabel; Lima, Francisco Ramos; Pequeno, Belen; Ajenjo, Nuria; Becerra, Mercedes; Alfonso, Patricia; Reymundo, Maria Isabel; Palacios, Irene; Mateos, Genoveva; Quinones, Helena; Corrionero, Ana; Carnero, Amancio; Pevarello, Paolo; Lopez, Ana Rodriguez; Fominaya, Jesus; Pastor, Joaquin; Bischoff, James R. Cancer Letters (Shannon, Ireland) 2011, 300(2), 145-153

[9] = molecular target: intracellular CDK8 (Homo sapiens (Human), UniProt P49336); experiment: Endogenous phosphoSTAT1 inhibition in SW620 cells growing in 10% FBS; type: cell-based; conditions: semiquantitative, read-out: SW620 P-STAT1(S727)
Sequence of intracellular CDK8 (P49336 whole entry): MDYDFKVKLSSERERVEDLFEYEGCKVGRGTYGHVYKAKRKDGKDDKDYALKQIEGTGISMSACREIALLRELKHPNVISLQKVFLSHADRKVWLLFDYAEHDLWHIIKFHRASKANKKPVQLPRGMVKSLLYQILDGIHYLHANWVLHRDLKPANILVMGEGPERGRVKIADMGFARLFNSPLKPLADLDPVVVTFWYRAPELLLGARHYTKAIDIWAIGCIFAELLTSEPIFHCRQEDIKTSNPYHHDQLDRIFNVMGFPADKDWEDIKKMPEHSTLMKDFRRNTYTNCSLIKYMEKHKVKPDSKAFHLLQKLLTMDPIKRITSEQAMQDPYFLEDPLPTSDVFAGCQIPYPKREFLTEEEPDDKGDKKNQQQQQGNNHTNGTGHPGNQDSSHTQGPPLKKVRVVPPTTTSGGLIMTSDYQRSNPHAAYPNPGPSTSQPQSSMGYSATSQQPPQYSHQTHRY
Sequence of intracellular CDK8 (P24863 whole entry partner): as the sequence (P24863 whole entry partner) above
Sequence of intracellular CDK8 (Q93074 whole entry partner): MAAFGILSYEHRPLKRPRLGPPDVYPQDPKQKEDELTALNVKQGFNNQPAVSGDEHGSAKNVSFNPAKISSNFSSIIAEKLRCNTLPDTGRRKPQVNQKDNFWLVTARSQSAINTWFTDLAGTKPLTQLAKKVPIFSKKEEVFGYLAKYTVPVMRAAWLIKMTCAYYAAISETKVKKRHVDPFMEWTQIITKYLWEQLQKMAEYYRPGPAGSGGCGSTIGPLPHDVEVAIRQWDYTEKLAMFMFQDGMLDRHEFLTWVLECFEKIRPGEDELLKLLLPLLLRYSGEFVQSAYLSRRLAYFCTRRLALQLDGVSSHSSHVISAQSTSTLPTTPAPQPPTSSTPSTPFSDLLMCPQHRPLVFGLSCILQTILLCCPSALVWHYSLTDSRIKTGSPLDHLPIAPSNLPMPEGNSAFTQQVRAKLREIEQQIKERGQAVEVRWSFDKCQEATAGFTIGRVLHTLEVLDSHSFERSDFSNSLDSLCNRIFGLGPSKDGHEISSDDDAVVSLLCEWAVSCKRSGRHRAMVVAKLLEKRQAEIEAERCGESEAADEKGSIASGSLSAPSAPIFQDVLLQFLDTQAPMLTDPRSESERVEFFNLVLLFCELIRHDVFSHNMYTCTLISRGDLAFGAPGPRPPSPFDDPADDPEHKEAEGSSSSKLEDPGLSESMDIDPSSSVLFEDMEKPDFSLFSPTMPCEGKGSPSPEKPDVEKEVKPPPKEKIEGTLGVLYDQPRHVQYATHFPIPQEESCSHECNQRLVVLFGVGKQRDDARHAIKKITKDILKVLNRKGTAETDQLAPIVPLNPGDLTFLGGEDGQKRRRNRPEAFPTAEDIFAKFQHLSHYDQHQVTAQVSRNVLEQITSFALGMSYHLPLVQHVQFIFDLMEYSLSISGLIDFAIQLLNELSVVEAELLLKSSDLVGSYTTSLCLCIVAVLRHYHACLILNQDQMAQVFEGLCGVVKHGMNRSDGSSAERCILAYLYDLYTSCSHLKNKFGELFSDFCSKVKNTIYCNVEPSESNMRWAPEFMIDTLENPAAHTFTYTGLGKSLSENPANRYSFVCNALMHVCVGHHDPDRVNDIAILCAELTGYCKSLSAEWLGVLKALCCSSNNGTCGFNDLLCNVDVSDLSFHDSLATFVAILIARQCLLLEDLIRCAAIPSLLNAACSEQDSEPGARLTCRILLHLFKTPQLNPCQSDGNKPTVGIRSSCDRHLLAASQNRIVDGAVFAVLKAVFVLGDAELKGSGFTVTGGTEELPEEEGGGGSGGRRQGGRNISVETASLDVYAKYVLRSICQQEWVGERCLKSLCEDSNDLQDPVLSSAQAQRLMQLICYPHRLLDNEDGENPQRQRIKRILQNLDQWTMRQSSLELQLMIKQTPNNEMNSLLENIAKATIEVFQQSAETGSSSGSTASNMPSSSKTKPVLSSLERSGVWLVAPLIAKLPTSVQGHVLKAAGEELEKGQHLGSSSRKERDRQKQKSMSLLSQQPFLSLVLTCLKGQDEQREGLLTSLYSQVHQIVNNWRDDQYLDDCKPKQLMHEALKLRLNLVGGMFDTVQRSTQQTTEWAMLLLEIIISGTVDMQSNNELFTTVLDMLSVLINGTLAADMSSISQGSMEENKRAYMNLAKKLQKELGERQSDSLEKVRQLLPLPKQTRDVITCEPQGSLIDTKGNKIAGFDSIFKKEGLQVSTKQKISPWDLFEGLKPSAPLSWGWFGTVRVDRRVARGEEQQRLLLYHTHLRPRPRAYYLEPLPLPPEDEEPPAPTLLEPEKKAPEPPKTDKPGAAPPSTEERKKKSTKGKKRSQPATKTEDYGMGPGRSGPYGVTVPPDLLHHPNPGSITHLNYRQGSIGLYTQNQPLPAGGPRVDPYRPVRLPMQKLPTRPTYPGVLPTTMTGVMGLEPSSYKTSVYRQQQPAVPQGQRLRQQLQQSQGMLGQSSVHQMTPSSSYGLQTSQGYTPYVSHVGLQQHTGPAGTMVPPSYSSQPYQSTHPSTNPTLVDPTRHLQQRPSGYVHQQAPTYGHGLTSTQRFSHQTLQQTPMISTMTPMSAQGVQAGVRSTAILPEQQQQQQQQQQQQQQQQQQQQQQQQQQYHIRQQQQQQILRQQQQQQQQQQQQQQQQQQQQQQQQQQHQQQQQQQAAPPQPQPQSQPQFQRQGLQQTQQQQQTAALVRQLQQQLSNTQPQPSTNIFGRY
Description: Endogenous phosphoSTAT1 inhibition can be screened in cells growing in 10% FBS. Cells are plated as described before and treated for 8 h with compounds as described before. Then cells are lysated and phospho STAT1 is evaluated as described before. The percentage of phosphorylated STAT1 vs total STAT1 in cells treated with DMSO is taken as hundred percent of phosphorylation. The percentage of STAT1 phosphorylation is finally plotted against concentration for each compound and EC50s for intracellular CDK8 inhibition are calculated using ActivityBase from IDBS.

[10] = Homo sapiens, MV4-11, growth inhibition, semiquantitative, read-out: GI50 MV4:11
[11] = Homo sapiens, MDA-MB-231, growth inhibition, semiquantitative, read-out: GI50 MDA-MB-231
[12] = Homo sapiens, SW-620, growth inhibition, semiquantitative, read-out: GI50 SW620
[13] = Homo sapiens, MOLM-13, growth inhibition, semiquantitative, read-out: GI50 Molm13

Sequence of CDK8/Cyclin C (P49336 whole entry): as the sequence (P49336 whole entry) above
Sequence of CDK8/Cyclin C (P24863 whole entry partner): as the sequence (P24863 whole entry partner) above

SMILES	IC50 [1]	IC50 [2]	IC50 [3]	GI50 [4, 10]	GI50 [5, 11]	GI50 [6, 12]	GI50 [7, 13]	also measured
Cn1c(C(N)=O)cc2c1-c1ccncc1OC2(C)C [Example 22]	1.98 nM	87.4 nM	1.41 nM					GI50 ([4]; Homo sapiens, MV4-11, read-out: GI50 MV4:11): < 1000 nM; GI50 ([5]; Homo sapiens, MDA-MB-231, read-out: GI50 MDA-MB-231): 1000 to 10000 nM; GI50 ([6]; Homo sapiens, SW-620, read-out: GI50 SW620): 10000 to 100000 nM; GI50 ([7]; Homo sapiens, MOLM-13, read-out: GI50 Molm13): 1000 to 10000 nM
CCn1c(C(N)=O)c(-c2cccc(OC)c2)c2c1-c1ccncc1OC2(C)C [Example 88]	13.9 nM	106 nM		< 1000 nM	10000 to 100000 nM	10000 to 100000 nM	1000 to 10000 nM	
COc1ccc(S(=O)(=O)Nc2cccnc2Nc2ccc(O)cc2)cc1 [ABT-751, reference compound]								GI50 ([8]; Homo sapiens, SW-620): 500 nM
Cn1c(C(N)=O)cc2c1-c1ccncc1OC21CCOCC1 [Example 81]	3.83 nM	138 nM	6.1 nM	< 1000 nM	1000 to 10000 nM	1000 to 10000 nM	< 1000 nM	
Cn1c(C(N)=O)cc2c1-c1ccncc1OC21CCCCC1 [Example 83]	0.278 nM	9.8 nM	1.41 nM	< 1000 nM	1000 to 10000 nM	1000 to 10000 nM	< 1000 nM	EC50 [9]: < 500 nM
CC1(C)Oc2cncc(Cl)c2-c2[nH]c(C(N)=O)cc21 [Example 34]	2.1 nM	31.8 nM	1.41 nM	< 1000 nM				
NC(=O)c1cc2c([nH]1)-c1ccncc1OC2C1CCCCC1 (stereo not shown) [Example 57]	1.41 nM		47.3 nM			< 1000 nM		
COCCn1c(C(N)=O)cc2c1-c1ccncc1OC21CCOCC1 [Example 87]	14.2 nM	136 nM	20.9 nM	1000 to 10000 nM	10000 to 100000 nM	10000 to 100000 nM	10000 to 100000 nM	
NC(=O)c1cc2c(n1CCF)-c1ccncc1OC21CCC1 [Example 76]	0.262 nM	24.2 nM	0.827 nM	< 1000 nM	1000 to 10000 nM	1000 to 10000 nM	< 1000 nM	EC50 [9]: < 500 nM
CCn1c(C(N)=O)cc2c1-c1ccncc1O[C@H]2C1CCCCC1 (single isomer, unassigned) [Example 89]	0.407 nM	95.2 nM	1.41 nM					GI50 ([4]; growth inhibition, semiquantitative, read-out: GI50 MV4:11): < 1000 nM; GI50 ([5]; growth inhibition, semiquantitative, read-out: GI50 MDA-MB-231): 10000 to 100000 nM; GI50 ([6]; growth inhibition, semiquantitative, read-out: GI50 SW620): 10000 to 100000 nM; GI50 ([7]; growth inhibition, semiquantitative, read-out: GI50 Molm13): < 1000 nM
CC1(C)Oc2cnccc2-c2[nH]c(C(N)=O)c(C3CC3)c21 [Example 86]	4.33 nM	34.5 nM	0.48 nM	< 1000 nM	1000 to 10000 nM	1000 to 10000 nM	1000 to 10000 nM	EC50 [9]: < 500 nM
NC(=O)c1cc2c([nH]1)-c1ccncc1OC21CCN(CC(F)(F)F)CC1 [Example 18]	20.2 nM	344 nM	40.5 nM	1000 to 10000 nM	10000 to 100000 nM	10000 to 100000 nM	1000 to 10000 nM	
CCn1c(C(N)=O)cc2c1-c1ccncc1OC21CCCCC1 [Example 80]	0.314 nM		0.77 nM	< 1000 nM	1000 to 10000 nM	1000 to 10000 nM	< 1000 nM	EC50 [9]: < 500 nM
O=C1[O][Pt]2([NH][C@@H]3CCCC[C@H]3[NH]2)[O]C1=O [Oxaliplatin, oxaliplatin, reference compound]								GI50 [8]: 5000 nM
CC1(C)Oc2cnccc2-c2[nH]c(C(N)=O)cc21 [Example 1]	2.59 nM	38.1 nM	11.9 nM	1000 to 10000 nM	10000 to 100000 nM			
Cn1c(C(N)=O)cc2c1-c1ccncc1OC21CCC1 [Example 67]	0.466 nM	27.6 nM	1.41 nM					
NC(=O)c1cc2c([nH]1)-c1ccncc1OC21CCN(CCc2ccccc2)CC1 [Example 46]	445 nM	81.3 nM	585 nM	< 1000 nM	1000 to 10000 nM	1000 to 10000 nM	< 1000 nM	
CC1(C)Oc2cnccc2-c2[nH]c(C(N)=O)c(-c3ccccc3)c21 [Example 31]	29.7 nM	73.2 nM	107 nM					
CC1(C)Oc2cnccc2-c2[nH]c(C(N)=O)c(C3=CCOCC3)c21 [Example 55]	39.3 nM	146 nM	70.5 nM					
COc1ccc(-c2c(C(N)=O)[nH]c3c2C(C)(C)Oc2cnccc2-3)cc1 [Example 51]	31.9 nM	321 nM	171 nM					
CC1(C)Oc2cnccc2-c2[nH]c(C(=O)O)c(-c3ccc(S(N)(=O)=O)cc3)c21 [Example 30]	8.94 nM	2740 nM	20.7 nM					CDK8 selectivity [1]: high CDK8 selectivity
Cn1c(C(N)=O)cc2c1-c1c(Cl)cncc1OC2(C)C [Example 41]	55.5 nM	1310 nM	158 nM					
